Experimental data as given in ChEMBL document CHEMBL1134400, “Short peptides with induced beta-turn inhibit the interaction between HIV-1 gp120 and CD4” (J Med Chem, 2001).
pIC50: −log10 of the molar value. Residues, ends and D or L forms follow the SMILES beside them.

System: Human immunodeficiency virus 1
Experiment: Inhibitory activity against interaction between HIV-1 gp120 and CD4
Assay type: functional

Row | Molecule | pIC50
1 | CC(C)C[C@H](NC(=O)[C@H](CC(=O)O)NC(=O)[C@H](Cc1ccccc1)NC(=O)[C@H](CO)NC(=O)[C@@H]1CCCN1C(=O)[C@H](CCC(N)=O)NC(=O)[C@@H](N)CS)C(=O)N[C@@H](CCC(N)=O)C(=O)N[C@@H](CS)C(=O)O (H-CQPSFDLQC-OH) | 6.00
2 | H-ARQPSFDLQCGF-OH | 4.30
3 | H-PSFDLQ-OH | 5.22
